Molecular target: human truncated cGAS enzyme (147-522 human cGAS) (Homo sapiens (Human), UniProt Q8N884)
Test: Quantification of cGAS protein inhibition (cGAMP formation, LC-MS/MS)
Type: biochemical
Details: 30 nM enzyme, 45 bp dsDNA (ISD) 5 μM, GTP and ATP 0.5 mM each, 1 h at room temperature; potential mixture of co-existing tautomers and/or racemates
Description: Example 52: Quantification of cGAS Protein Inhibition
A reagent buffer was prepared in filtered and autoclaved water according to the following: • 50 mM Tris-buffer pH 7.5 (1 M Tris-buffer pH 7.5, Invitrogen, Cat. No. 15567-027); • 50 mM NaCl (5 M NaCl, Sodium Chloride Solution, Sigma, 59222C-); • 5 mM MgCl2 (1 M MgCl2, Sigma, M1028); • 0.1 mM ZnCl2 (Zinc Chloride [7646-85-7], powder, Cell Culture Tested, Sigma, Z-0152); and • 0.001% Tween 20 (TWEEN 20, Sigma Aldrich, P1379-).
A buffer for the cGAS enzyme was prepared in filtered and autoclaved water according to the following: • 50 mM Tris-buffer pH 7.5; • 5 mM MgCl2; and • 0.001% Tween 20.
Compounds were dispensed to a […]. The human truncated cGAS enzyme (4.2 mg/mL 147-522 human cGAS, MW 43,909 g/mol) was stored in 50 mM Tris, 500 mM NaCl, 5% (v/v) glycerol at pH 8 and diluted in the cGAS buffer enzyme shortly before use. The enzyme solution was transferred into the reagent buffer to give a final concentration of 30 nM. The reaction was started by mixing the enzyme with ISD (a 45 bp double stranded DNA, MW 27,670 g/mol, 5 mM), GTP and ATP to a final concentration of 5 μM, 0.5 mM and 0.5 mM respectively in a final volume of 10 μl. The reaction plates were then centrifuged at 1000 rpm for 1 minute and incubated at room temperature for 1 h. After 1 h of incubation, [^15N5]-2′3′-cGAMP to a final concentration of 200 nM and 30 μL of 100% acetonitrile/0.175% of TFA were added to the reaction mixture. The plates were centrifuged at 1000 rpm for 1 minute before being sealed for 3 seconds at 170° C. using a ThermoScientific sealer (ALPS™ 50V) and an aluminum sealing cover (Pierce Seal, 4titude, Product Code: 4TI-0531).
The concentration of cGAMP was measured on a LC-MS/MS system consisting of a THERMO Dionex Ultimate LC system with a high pressure pump, an autosampler, a column heating compartment (Reinach, Switzerland) and a SCIEX Triple Quad 5500 (Framingham, MA, USA) mass spectrometer for detection. The sample plates were centrifuged for 10 minutes at 2000 rpm. Up to three plates were placed in the autosampler for injection. An aliquot of 10 μL of each sample was injected on an XBridge BEH Amide 3.5 μm, 2.1×50 mm column (P/N 186004859) with an XBridge BEH Amide 5 μm 2.1×5 mm VanGuard Cartridge (P/N 186007760) pre-column (both WATERS, MA, USA) held at 40° C. An isocratic flow of 1.0 mL/min solvent (60% ACN, 8 mM ammonium acetate, 5 mM ammonium hydroxide, 0.04% acetic acid) was applied and sprayed into the ion source of the mass spectrometers. The MS parameters were optimized based on the properties of the compounds to be detected and run in positive multi-reaction mode (MRM) based on the mass transitions. LC and MS parameters were also optimized to allow for a sample-to-sample measuring time of approximately 75 sec and a run time of 8 hours per 384-well plate. All data were analyzed with Excel; and the dose response curves were generated using the auto fitting function of XLfit. The IC50 was determined by plotting the cGAMP concentration ratio (cGAMP divided by the internal standard [^15N5]-2′3′-cGAMP) versus the concentration of compound.

human truncated cGAS enzyme (147-522 human cGAS), sequence (Q8N884 147-522): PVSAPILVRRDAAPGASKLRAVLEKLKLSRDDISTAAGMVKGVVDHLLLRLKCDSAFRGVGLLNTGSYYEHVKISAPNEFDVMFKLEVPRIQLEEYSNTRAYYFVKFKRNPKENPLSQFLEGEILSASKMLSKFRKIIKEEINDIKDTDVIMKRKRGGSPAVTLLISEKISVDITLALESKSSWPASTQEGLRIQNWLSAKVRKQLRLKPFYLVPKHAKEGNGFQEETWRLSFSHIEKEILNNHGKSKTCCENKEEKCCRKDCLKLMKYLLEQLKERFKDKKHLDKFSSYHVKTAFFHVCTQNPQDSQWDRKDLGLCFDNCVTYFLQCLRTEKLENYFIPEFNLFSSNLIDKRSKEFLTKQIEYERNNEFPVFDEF

For COCC(c1nnc(-c2c(-c3cn[nH]c3)c3nc(OC)c(Cl)cc3n2C)[nH]1)N(C)C (centres unmarked) [Example 37, 1-(5-(6-chloro-5-methoxy-1-methyl-3-(1H-pyrazol-4-yl)-1H-pyrrolo[3,2-b]pyridin-2-yl)-4H-1,2,4-triazol-3-yl)-2-methoxy-N,N-dimethylethan-1-amine], which IC50 is on record?
Its IC50 is 123 nM.

How did the IC50 turn out when COc1nc2c(-n3ccnc3)c(-c3nnc(C(F)(F)F)[nH]3)[nH]c2cc1Cl [Example 46, 6-chloro-3-(1H-imidazol-1-yl)-5-methoxy-2-(5-(trifluoromethyl)-4H-1,2,4-triazol-3-yl)-1H-pyrrolo[3,2-b]pyridine] was run?
Its IC50 is 80 nM.

COc1nc2c(-c3cn[nH]c3)c(-c3nnc(C(C)=O)[nH]3)[nH]c2cc1Cl [Example 6, 1-(5-(6-chloro-5-methoxy-3-(1H-pyrazol-4-yl)-1H-pyrrolo[3,2-b]pyridin-2-yl)-4H-1,2,4-triazol-3-yl)ethan-1-one] was tested. Which IC50 did it give?
The IC50 was 66 nM.

Which IC50 does the source give for COc1nc2c(-c3cn[nH]c3)c(-c3nnc(C(=O)N(C)C)[nH]3)[nH]c2cc1Cl [Example 16, 5-(6-chloro-5-methoxy-3-(1H-pyrazol-4-yl)-1H-pyrrolo[3,2-b]pyridin-2-yl)-N,N-dimethyl-4H-1,2,4-triazole-3-carboxamide] here?
The IC50 was 30 nM.

How did the IC50 turn out when COc1nc2c(-c3cn[nH]c3)c(-c3nnc(C(C)=O)[nH]3)n(C)c2cc1Cl [Example 42, 1-(5-(6-chloro-5-methoxy-1-methyl-3-(1H-pyrazol-4-yl)-1H-pyrrolo[3,2-b]pyridin-2-yl)-4H-1,2,4-triazol-3-yl)ethan-1-one] was run?
The IC50 was 66 nM.

Which IC50 does the source give for COc1nc2c(-c3cn[nH]c3)c(-c3nnc(C(=O)N(C)C)[nH]3)n(C)c2cc1Cl [Example 43, 5-(6-chloro-5-methoxy-1-methyl-3-(1H-pyrazol-4-yl)-1H-pyrrolo[3,2-b]pyridin-2-yl)-N,N-dimethyl-4H-1,2,4-triazole-3-carboxamide] here?
Its IC50 is 98 nM.

With COc1nc2c(-n3ccnc3)c(-c3nnc(/C(C)=N/OCCO)[nH]3)n(C)c2cc1Cl [Example 40, (E/Z)-1-(5-(6-chloro-3-(1H-imidazol-1-yl)-5-methoxy-1-methyl-1H-pyrrolo[3,2-b]pyridin-2-yl)-4H-1,2,4-triazol-3-yl)ethan-1-one O-(2-hydroxyethyl)oxime] as the compound, how does the IC50 read?
Its IC50 is 101 nM.

For COCC(O)c1nnc(-c2c(-n3ccnc3)c3nc(OC)c(Cl)cc3n2C)[nH]1 (centres unmarked) [Example 29, 1-(5-(6-chloro-3-(1H-imidazol-1-yl)-5-methoxy-1-methyl-1H-pyrrolo[3,2-b]pyridin-2-yl)-4H-1,2,4-triazol-3-yl)-2-methoxyethan-1-ol], which IC50 is on record?
Its IC50 is 295 nM.

COc1nc2c(-n3ccnc3)c(-c3nnc(C(=O)N(C)C)[nH]3)n(C)c2cc1Cl [Example 17, 5-(6-chloro-3-(1H-imidazol-1-yl)-5-methoxy-1-methyl-1H-pyrrolo[3,2-b]pyridin-2-yl)-N,N-dimethyl-4H-1,2,4-triazole-3-carboxamide] was tested. Which IC50 did it give?
The IC50 was 116 nM.

How did the IC50 turn out when COc1nc2c(-n3ccnc3)c(-c3nnc(C(F)(F)F)[nH]3)n(C)c2cc1Cl [Example 45] was run?
The IC50 was 384 nM.

COCC(F)(F)c1nnc(-c2c(-n3ccnc3)c3nc(OC)c(Cl)cc3n2C)[nH]1 [Example 30, 6-chloro-2-(5-(1,1-difluoro-2-methoxyethyl)-4H-1,2,4-triazol-3-yl)-3-(1H-imidazol-1-yl)-5-methoxy-1-methyl-1H-pyrrolo[3,2-b]pyridine] was tested. Which IC50 did it give?
Its IC50 is 186 nM.

Which IC50 does the source give for COc1nc2c(-n3ccnc3)c(-c3nnc(F)[nH]3)n(C)c2cc1Cl [Example 33, 6-chloro-2-(5-fluoro-4H-1,2,4-triazol-3-yl)-3-(1H-imidazol-1-yl)-5-methoxy-1-methyl-1H-pyrrolo[3,2-b]pyridine] here?
Its IC50 is 332 nM.

Which IC50 does the source give for COc1nc2c(-c3cn[nH]c3)c(-c3nnc(C(F)(F)F)[nH]3)n(C)c2cc1Cl [Example 1, 6-chloro-5-methoxy-1-methyl-3-(1H-pyrazol-4-yl)-2-(5-(trifluoromethyl)-4H-1,2,4-triazol-3-yl)-1H-pyrrolo[3,2-b]pyridine] here?
The IC50 was 76 nM.

How did the IC50 turn out when COc1nc2c(-c3cn[nH]c3)c(-c3nnc(C(C)(F)F)[nH]3)[nH]c2cc1Cl [Example 3, 6-chloro-2-(5-(1,1-difluoroethyl)-4H-1,2,4-triazol-3-yl)-5-methoxy-3-(1H-pyrazol-4-yl)-1H-pyrrolo[3,2-b]pyridine] was run?
Its IC50 is 32 nM.

COc1nc2c(-n3ccnc3)c(-c3nnc(CN(C)C)[nH]3)n(C)c2cc1Cl [Example 51, 1-(5-(6-chloro-3-(1H-imidazol-1-yl)-5-methoxy-1-methyl-1H-pyrrolo[3,2-b]pyridin-2-yl)-4H-1,2,4-triazol-3-yl)-N,N-dimethylmethanamine] was tested. Which IC50 did it give?
The IC50 was 308 nM.

How did the IC50 turn out when COc1nc2c(-c3cn[nH]c3)c(-c3nnc[nH]3)n(C)c2cc1Cl [Example 14, 6-chloro-5-methoxy-1-methyl-3-(1H-pyrazol-4-yl)-2-(4H-1,2,4-triazol-3-yl)-1H-pyrrolo[3,2-b]pyridine] was run?
The IC50 was 3520 nM.

With COc1nc2c(-c3cn[nH]c3)c(-c3nnc(F)[nH]3)n(C)c2cc1Cl [Example 9, 6-chloro-2-(5-fluoro-4H-1,2,4-triazol-3-yl)-5-methoxy-1-methyl-3-(1H-pyrazol-4-yl)-1H-pyrrolo[3,2-b]pyridine] as the compound, how does the IC50 read?
The IC50 was 267 nM.

With COc1nc2c(-n3ccnc3)c(-c3nnc(C(OC)C(F)(F)F)[nH]3)n(C)c2cc1Cl (centres unmarked) [Example 26, 6-chloro-3-(1H-imidazol-1-yl)-5-methoxy-1-methyl-2-(5-(2,2,2-trifluoro-1-methoxyethyl)-4H-1,2,4-triazol-3-yl)-1H-pyrrolo[3,2-b]pyridine] as the compound, how does the IC50 read?
The IC50 was 107 nM.

With COCC(c1nnc(-c2c(-n3ccnc3)c3nc(OC)c(Cl)cc3n2C)[nH]1)N(C)C (centres unmarked) [Example 36, 1-(5-(6-chloro-3-(1H-imidazol-1-yl)-5-methoxy-1-methyl-1H-pyrrolo[3,2-b]pyridin-2-yl)-4H-1,2,4-triazol-3-yl)-2-methoxy-N,N-dimethylethan-1-amine] as the compound, how does the IC50 read?
Its IC50 is 454 nM.

For Cn1c(-c2nnc(C(F)(F)F)[nH]2)c(-c2cn[nH]c2)c2nc(O)c(Cl)cc21 [Example 50, 6-chloro-1-methyl-3-(1H-pyrazol-4-yl)-2-(5-(trifluoromethyl)-4H-1,2,4-triazol-3-yl)-1H-pyrrolo[3,2-b]pyridin-5-ol], which IC50 is on record?
Its IC50 is 741 nM.
